In data set [1] the target is hERG potassium channel (Homo sapiens (Human), UniProt Q12809). Put plainly: hERG whole-cell patch-clamp in stably transfected CHO cells. The format is cell-based. The following applies: for selectivity ratio: pH 7.4, hERG IC20 / hTAAR1 EC50, read-out: hERG selectivity ratio versus hTAAR1 EC50; for IC50: patch-clamp, CHO cells, 36±1° C. How it is done:
The whole-cell patch-clamp technique was used to investigate the effects of the test items on hERG (human-ether-a-go-go related gene) potassium channels in stably transfected CHO cells near physiological temperature (36±1° C.). The effects of compounds on hERG K^+-current parameters were evaluated at 4 concentrations (0.3-3-30-300 μM) in at least 3 CHO cells stably expressing the hERG channel. For electrophysiological measurements cells were seeded onto 35 mm sterile culture dishes containing 2 ml culture medium without Hygromycin B. Cells were cultivated at a density that enabled single cells (without visible connections to neighbouring cells) to be measured. Cells were incubated at 37° C. in a humidified atmosphere with 5% CO2 (rel. humidity about 95%). The cells were continuously maintained in and passaged in sterile culture flasks containing nutrient mixture F-12 (DMEM/F-12 with L-Glutamine) supplemented with 10% foetal bovine serum and 10% penicillin/streptomycin solution. […] The 35 mm culture dishes upon which cells were seeded at a density allowing single cells to be recorded were placed on the dish holder of the microscope and continuously perfused (at approximately 1 ml/min) with the bath solution (sodium chloride 150 mM, potassium chloride 4 mM, calcium chloride 1.2 mM, magnesium chloride 1 mM, HEPES 10 mM, pH (NaOH) 7.4) at near physiological temperature (36±1° C.). After formation of a Gigaohm seal between the patch electrodes and individual hERG stably transfected CHO cells (pipette resistance range: 2.0 MΩ-7.0 Mω; seal resistance range: >1 Gω) the cell membrane across the pipette tip was ruptured to assure electrical access to the cell interior (whole-cell patch-configuration). In case the quality of the seal was poor, the process of seal formation was repeated with a different cell and a new pipette. […] This voltage protocol was run at least 10 times at intervals of 10 s. If current density was judged to be too low for measurement, another cell was recorded. […] During wash-in of the test item the voltage protocol indicated above was run continuously again at 10 s intervals until the steady-state level of block was reached. The four test item concentrations of the compound were applied sequentially to 3 cells in a cumulative manner. […] Based on the IC50 value the IC20 was estimated. Each concentration of the test item was analyzed in three experiments (n=3).
On the technique in general: Block of hERG is tested as a sign of cardiac risk.

Data set [2] has as its target human TAAR1 (Homo sapiens (Human), UniProt Q96RJ0). Put plainly: cAMP functional assay in HEK293 cells expressing human TAAR1. The format is cell-based. The following applies: for hTAAR1 efficacy*: % agonist activity, β-phenylethylamine = 100% agonism; for EC50: cAMP, HEK293 cells expressing human TAAR1, read-out: hTAAR1 EC50. How it is done:
For the construction of expression plasmids the coding sequences of human TAAR 1 were amplified from genomic DNA essentially as described by Lindemann et al.[14]. The Expand High Fidelity PCR System (Roche Diagnostics) was used with 1.5 mM Mg^2+ and purified PCR products were cloned into pCR2.1-TOPO cloning vector (Invitrogen) following the instructions of the manufacturer. PCR products were subcloned into the pIRESneo2 vector (BD Clontech, Palo Alto, Calif.), and expression vectors were sequence verified before introduction in cell lines.
HEK293 cells (ATCC # CRL-1573) were cultured essentially as described by Lindemann et al. (2005). For the generation of stably transfected cell lines HEK293 cells were transfected with the pIRESneo2 expression plasmids containing the TAAR coding sequences (described above) with Lipofectamine 2000 (Invitrogen) according to the instructions of the manufacturer, and 24 hrs post transfection the culture medium was supplemented with 1 mg/ml G418 (Sigma, Buchs, Switzerland). After a culture period of about 10 d clones were isolated, expanded and tested for responsiveness to trace amines (all compounds purchased from Sigma) with the cAMP Biotrak Enzyme immunoassay (EIA) System (Amersham) following the non-acetylation EIA procedure provided by the manufacturer.
cAMP measurements were performed as described previously (Revel et al., Proc. Natl. Acad. Sci. USA 2011, 108, 8485-8490). In brief, cells that expressed human TAAR1 were plated on 96-well plates (BIOCOAT 6640; Becton Dickinson, Allschwil, Switzerland) and incubated for 20 h at 37° C. Prior to stimulation of the cells with a broad concentration range of agonists for 30 min at 37° C., the cells were washed with PBS and preincubated with PBS that contained 1 mM 3-isobutyl-1-methylxanthine for 10 min at 37° C. and 5% CO2. Stimulation with 0.2% DMSO was set as the basal level, and the effect of 30 μM β-PEA was set as the maximal response. Subsequently, the cells were lysed, and cAMP assays were performed according to the manufacturer's instructions (cAMP kit; Upstate/Millipore, Schaffhausen, Switzerland). Finally, the plates were read with a luminometer (1420 Multilabel counter; PerkinElmer, Schwerzenbach, Switzerland), and the amount of cAMP was calculated. The results were obtained from at least three independent experiments. Experiments were run in duplicate or triplicate. EC50 values are presented as mean ±standard deviation (in μM).

Data set [3] deals with human DAT (Homo sapiens (Human), UniProt Q01959). Put plainly: Binding to dopamine transporter (DAT) in vitro, [3H]-WIN35,428 SPA. Conditions: for Ki: [3H]-WIN35,428 radioligand; for DAT selectivity ratio versus hTAAR1 EC50: DAT Ki / hTAAR1 EC50. How it is done:
Binding to dopamine transporter (DAT) in vitro. Human embryonic kidney (HEK) 293 cells (Invitrogen, Zug, Switzerland) stably transfected with human DAT were cultured. The cells were collected and washed three times with phosphate-buffered saline (PBS). The pellets were frozen at −80° C. The pellets were then resuspended in 400 ml of 20 mM HEPES-NaOH, pH 7.4, that contained 10 mM EDTA at 4° C. After homogenization with a Polytron (Kinematica, Lucerne,
Switzerland) at 10000 rotations per minute (rpm) for 15 s, the homogenates were centrifuged at 48000×g for 30 min at 4° C. Aliquots of the membrane stocks were frozen at −80° C. All assays were performed at least three times. The test compounds were diluted in […] of binding buffer (252 mM NaCl, 5.4 mM KCl, 20 mM Na2HPO4, 3.52 mM KH2PO4, pH 7.4) and 10 point dilution curves were made and transferred to 96-well white polystyrene assay plates (Sigma-Aldrich, Buchs, Switzerland). […] Twenty microliters of binding buffer alone in the assay plate defined the total binding, whereas binding in the presence of 10 μM indatraline defined nonspecific binding. Frozen DAT membrane stocks were thawed and resuspended to a concentration of approximately 0.04 mg protein/ml binding buffer (1:1 diluted in H2O) using a polytron tissue homogenizer. The membrane homogenates (40 μg/ml) were then lightly mixed for 5-30 min with polyvinyl toluene […] wheat germ agglutinin-coated scintillation proximity assay (WGASPA; Amersham Biosciences) beads at 7.7 mg beads/ml homogenate. One hundred thirty microliters of the membrane/bead mixture were added to each well of the assay plate that contained radioligand and test compounds (final volume in each well, 200 μl) to start the assay, which was incubated for approximately 2 h at room temperature with agitation. The assay plates were then counted in the PVT SPA counting mode of a Packard Topcount. […] Non-linear regression was used to fit the data to sigmoid curves and determine IC50 values for binding and uptake. Ki values for binding and uptake were calculated using the following Cheng-Prusoff equation: Ki=IC50/(1+[S]/Km).

Where [4] appears, read: estimated based on the IC50 value.
Setting [5] is: human, CHO cells stably expressing hERG.
Setting [6] is: human, CHO cells stably expressing hERG, pH 7.4, estimated based on the IC50 value.

Molecules are shown by their SMILES. Where two headings read alike, the source gives them in different places.

Sequence of human DAT (Q01959 whole entry): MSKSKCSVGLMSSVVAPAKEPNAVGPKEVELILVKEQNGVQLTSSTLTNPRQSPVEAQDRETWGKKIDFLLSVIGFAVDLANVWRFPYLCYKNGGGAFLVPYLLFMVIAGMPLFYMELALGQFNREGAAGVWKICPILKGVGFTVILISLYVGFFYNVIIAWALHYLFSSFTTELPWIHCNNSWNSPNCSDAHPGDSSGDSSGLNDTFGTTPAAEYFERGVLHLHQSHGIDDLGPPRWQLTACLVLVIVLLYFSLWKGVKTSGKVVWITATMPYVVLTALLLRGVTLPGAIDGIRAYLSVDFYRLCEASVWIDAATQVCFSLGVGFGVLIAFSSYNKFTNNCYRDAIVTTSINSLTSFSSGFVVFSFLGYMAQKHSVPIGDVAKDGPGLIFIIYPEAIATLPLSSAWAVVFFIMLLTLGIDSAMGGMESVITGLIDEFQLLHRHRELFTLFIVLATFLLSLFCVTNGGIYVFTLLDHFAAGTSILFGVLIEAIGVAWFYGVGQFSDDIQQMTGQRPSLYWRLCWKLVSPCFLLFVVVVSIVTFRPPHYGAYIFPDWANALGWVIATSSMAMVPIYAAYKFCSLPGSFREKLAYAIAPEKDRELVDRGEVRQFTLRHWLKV
Sequence of human TAAR1 (Q96RJ0 whole entry): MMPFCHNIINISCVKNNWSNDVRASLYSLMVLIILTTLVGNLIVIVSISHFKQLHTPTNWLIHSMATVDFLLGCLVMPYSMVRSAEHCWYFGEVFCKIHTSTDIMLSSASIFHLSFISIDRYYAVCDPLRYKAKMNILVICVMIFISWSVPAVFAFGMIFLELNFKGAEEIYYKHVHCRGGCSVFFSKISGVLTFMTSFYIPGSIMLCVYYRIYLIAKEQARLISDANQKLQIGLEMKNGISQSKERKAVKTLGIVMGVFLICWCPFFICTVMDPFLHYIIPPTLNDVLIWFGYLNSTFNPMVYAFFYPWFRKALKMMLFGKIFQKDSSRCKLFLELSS
Sequence of hERG potassium channel (Q12809 whole entry): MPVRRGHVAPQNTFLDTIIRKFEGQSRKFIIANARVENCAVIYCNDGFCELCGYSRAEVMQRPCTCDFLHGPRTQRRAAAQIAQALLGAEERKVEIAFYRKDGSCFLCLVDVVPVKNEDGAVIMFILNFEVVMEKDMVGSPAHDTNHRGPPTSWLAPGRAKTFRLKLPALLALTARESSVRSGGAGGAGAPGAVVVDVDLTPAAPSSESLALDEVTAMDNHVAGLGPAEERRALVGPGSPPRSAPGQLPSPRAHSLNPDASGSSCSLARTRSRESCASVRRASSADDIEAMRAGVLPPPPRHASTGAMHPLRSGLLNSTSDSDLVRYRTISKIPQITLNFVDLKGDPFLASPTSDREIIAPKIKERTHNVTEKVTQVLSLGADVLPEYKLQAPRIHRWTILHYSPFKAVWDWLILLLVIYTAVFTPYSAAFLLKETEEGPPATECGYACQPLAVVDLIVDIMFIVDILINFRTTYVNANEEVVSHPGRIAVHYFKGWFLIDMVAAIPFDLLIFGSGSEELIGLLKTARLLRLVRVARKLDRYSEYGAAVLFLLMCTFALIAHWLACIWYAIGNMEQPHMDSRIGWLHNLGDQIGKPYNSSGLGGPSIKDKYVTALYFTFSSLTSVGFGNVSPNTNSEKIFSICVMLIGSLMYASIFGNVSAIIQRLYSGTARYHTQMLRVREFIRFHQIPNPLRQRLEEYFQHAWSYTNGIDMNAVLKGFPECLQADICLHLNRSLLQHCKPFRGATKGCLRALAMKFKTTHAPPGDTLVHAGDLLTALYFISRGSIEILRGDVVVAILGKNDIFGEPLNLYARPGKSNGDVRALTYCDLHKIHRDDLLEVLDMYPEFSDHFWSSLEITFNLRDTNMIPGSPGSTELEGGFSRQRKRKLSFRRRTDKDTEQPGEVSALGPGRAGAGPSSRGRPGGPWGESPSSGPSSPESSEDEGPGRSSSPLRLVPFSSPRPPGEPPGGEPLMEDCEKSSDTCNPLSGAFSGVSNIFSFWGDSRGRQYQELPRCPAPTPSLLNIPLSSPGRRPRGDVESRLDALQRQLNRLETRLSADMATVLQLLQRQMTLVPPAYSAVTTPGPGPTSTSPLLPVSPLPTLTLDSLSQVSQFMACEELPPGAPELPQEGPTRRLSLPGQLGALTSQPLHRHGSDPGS

`N#Cc1ccc(C(=O)Nc2ccc([C@H]3CNCCO3)cc2)cn1` [Example 10, 6-Cyano-N-[4-[(2S)-morpholin-2-yl]phenyl]pyridine-3-carboxamide]: in data set [1], the “Ratio hERG IC20/hTAAR1 EC50” value is recorded as 31 and the IC50 was found to be 31.7 µM. Moreover, the IC20 in data set [1] (setting [4]) is 5.78 µM. The selectivity ratio in data set [1] (setting [5]) came out at 31. Besides, in data set [2], the “hTAAR1 efficacy*” value is listed as 38% and the EC50 is 0.184 µM. Besides, the EC50 in data set [2] (listed as example 10) was 0.184 µM. Further, in data set [3], the “Ratio DAT Ki/hTAAR1 EC50” value is listed as 62 and affinity was put at a Ki of 11.3 µM.
For the compound `Cc1cc(C(=O)Nc2ccc([C@H]3CNCCO3)cc2)cc(Cl)n1` [Example 14, 2-Chloro-6-methyl-N-[4-[(2S)-morpholin-2-yl]phenyl]pyridine-4-carboxamide], in data set [1], the “Ratio hERG IC20/hTAAR1 EC50” value is 48 and 73.2 µM corresponded to half-maximal inhibition (IC50). Moreover, the IC20 in data set [1] (setting [6]) was 21.6 µM. Besides, in data set [2], the “hTAAR1 efficacy*” value is on record as 53% and the EC50 was found to be 0.447 µM. In addition, in data set [2] (listed as example 14), the EC50 is 0.447 µM. Moreover, in data set [3], the “Ratio DAT Ki/hTAAR1 EC50” value is given as 16, the “DAT selectivity ratio versus hTAAR1 EC50” value was determined as 16 fold and the Ki amounted to 7.32 µM.
Regarding `Cc1c(C(=O)Nc2ccc([C@H]3CNCCO3)cc2)n[nH]c1-c1ccccc1` [Example 8, 4-Methyl-N-[4-[(2S)-morpholin-2-yl]phenyl]-5-phenyl-1H-pyrazole-3-carboxamide], in data set [1], the “Ratio hERG IC20/hTAAR1 EC50” value stood at 28 and half-maximal inhibition (IC50) was put at 10.8 µM. Further, in data set [1] (setting [4]), the IC20 was 3.01 µM. In addition, in data set [1] (setting [5]), the selectivity ratio amounted to 28. In addition, in data set [2], the “hTAAR1 efficacy*” value was 33% and the EC50 was 0.109 µM. For the same compound, in data set [3], the “Ratio DAT Ki/hTAAR1 EC50” value is on record as 90 and affinity was put at a Ki of 9.77 µM.
For `O=C(Nc1ccc([C@H]2CNCCO2)cc1)c1ccn(-c2ccccc2)n1` [Example 20, N-[4-[(2S)-Morpholin-2-yl]phenyl]-1-phenylpyrazole-3-carboxamide], in data set [1], the “Ratio hERG IC20/hTAAR1 EC50” value came out at 1 and the IC50 was 10.8 µM. Besides, the IC20 in data set [1] (setting [4]) was 2.49 µM. Also, the selectivity ratio in data set [1] (setting [5]) was found to be 1. In data set [2], the “hTAAR1 efficacy*” value is 59% and the EC50 worked out at 2.48 µM. Besides, in data set [3], the “Ratio DAT Ki/hTAAR1 EC50” value is listed as more than 11 and the Ki is more than 26.1 µM.
With `O=C(Nc1ccc([C@H]2CNCCO2)cc1)c1ccnc(Cl)c1` [Example 5, 2-Chloro-N-[4-[(2S)-morpholin-2-yl]phenyl]pyridine-4-carboxamide], in data set [1], the “Ratio hERG IC20/hTAAR1 EC50” value is listed as 338 and the IC50 is 81.7 µM. For the same compound, the IC20 in data set [1] (setting [6]) is 22.2 µM. Also, in data set [2], the “hTAAR1 efficacy*” value worked out at 40% and the EC50 came to 0.0656 µM. In addition, in data set [3], the “Ratio DAT Ki/hTAAR1 EC50” value stood at 23, the “DAT selectivity ratio versus hTAAR1 EC50” value is 23 fold and the Ki came to 1.52 µM. The compound also showed an inhibition constant (Ki) in data set [3] (listed as example 5) of 1.5 µM.
Regarding `Cc1cc(C(=O)Nc2ccc([C@H]3CNCCO3)cc2)cc(C)n1` [Example 18, 2,6-Dimethyl-N-[4-[(2S)-morpholin-2-yl]phenyl]pyridine-4-carboxamide], in data set [1], the “Ratio hERG IC20/hTAAR1 EC50” value is given as 177 and the IC50 turned out to be 712 µM. The IC20 in data set [1] (setting [6]) is 147 µM. Further, in data set [2], the “hTAAR1 efficacy*” value came out at 63% and the EC50 is 0.827 µM. For the same compound, in data set [2] (listed as example 18), the EC50 was 0.827 µM. Further, in data set [3], the “Ratio DAT Ki/hTAAR1 EC50” value was more than 32 and the Ki is more than 26.1 µM.
As to `Cc1cc(C(=O)Nc2ccc([C@H]3CNCCO3)cc2)ccn1` [Example 17, 2-Methyl-N-[4-[(2S)-morpholin-2-yl]phenyl]pyridine-4-carboxamide], in data set [1], the “Ratio hERG IC20/hTAAR1 EC50” value worked out at 193 and the IC50 was 518 µM. In addition, the IC20 in data set [1] (setting [6]) is 130 µM. Besides, in data set [2], the “hTAAR1 efficacy*” value is listed as 45% and the EC50 worked out at 0.673 µM. Moreover, the EC50 in data set [2] (listed as example 17) stood at 0.673 µM. For the same compound, in data set [3], the “Ratio DAT Ki/hTAAR1 EC50” value was determined as 15, the “DAT selectivity ratio versus hTAAR1 EC50” value is 15 fold and the Ki turned out to be 10.3 µM.

The IC20 is the point of the concentration-response curve where the effect stands at 20%. Broadly, the IC50 is the concentration that inhibits the measured activity by half. In general, EC50 refers to the concentration needed to bring the measured effect to its halfway point. One may read the Ki as a measure of affinity in units of concentration, obtained from inhibition or displacement. A low value points to higher affinity.

The values above are taken from patent US10508107B2, “Morpholine derivative” (Hoffmann-La Roche Inc., priority 2016, dated 2019).
